# Activity calls are given as the source filed them.
# Assays:
# [1] = growth suppression of PTEN-null colon cells, dose response, cell-based, HCT116 PTEN knockout (AID 1047); type: functional;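 also: HCT116 colon tumor cells with PTEN knocked out; cells exposed to compound for 60 hours before readout; potency for loss of cell viability measured by luminescence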
# Cannabinoid receptor 1 [2] = target: T1, Cannabinoid receptor 1 (Homo sapiens, UniProt P21554); assay: SAR analysis of agonists of the Cannabinoid Receptor 1 using an Image-Based Assay - Set 2. [Related pubchem assays (depositor defined):AID2013, AID2026]; type: functional
# T1 sequence (P21554 whole entry): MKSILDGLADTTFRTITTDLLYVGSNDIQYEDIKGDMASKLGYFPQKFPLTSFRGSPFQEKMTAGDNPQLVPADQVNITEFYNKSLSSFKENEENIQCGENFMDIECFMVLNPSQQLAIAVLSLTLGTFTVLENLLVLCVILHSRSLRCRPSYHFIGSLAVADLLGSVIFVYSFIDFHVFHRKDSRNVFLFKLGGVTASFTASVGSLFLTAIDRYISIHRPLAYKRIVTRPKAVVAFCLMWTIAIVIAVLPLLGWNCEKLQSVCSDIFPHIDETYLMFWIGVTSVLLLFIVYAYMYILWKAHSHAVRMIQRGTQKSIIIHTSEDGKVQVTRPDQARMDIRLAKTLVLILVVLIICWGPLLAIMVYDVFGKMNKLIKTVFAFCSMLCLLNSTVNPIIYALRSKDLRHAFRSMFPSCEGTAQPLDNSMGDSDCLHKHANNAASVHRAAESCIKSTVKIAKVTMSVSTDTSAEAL
# [3] = target: T2, G-protein coupled receptor 35 (Homo sapiens, UniProt Q9HC97); assay: SAR analysis of Agonists of the GPR35 Receptor using an Image-Based Assay - Set 2. [Related pubchem assays (depositor defined):AID2013, AID2026]; type: functional
# T2 sequence (Q9HC97 whole entry): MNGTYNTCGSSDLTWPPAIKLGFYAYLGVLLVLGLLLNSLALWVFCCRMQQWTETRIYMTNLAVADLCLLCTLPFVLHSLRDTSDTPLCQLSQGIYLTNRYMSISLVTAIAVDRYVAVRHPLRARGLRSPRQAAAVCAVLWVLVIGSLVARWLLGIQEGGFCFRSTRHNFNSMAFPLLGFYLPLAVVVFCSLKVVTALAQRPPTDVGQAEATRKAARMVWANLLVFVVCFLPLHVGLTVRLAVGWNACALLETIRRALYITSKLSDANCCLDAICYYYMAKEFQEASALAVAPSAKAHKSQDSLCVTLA
# [4] = target: T3, G-protein coupled receptor 55 (Homo sapiens, UniProt Q9Y2T6); assay: GPR55 antagonists blocking LPI-driven arrestin recruitment, primary screen, imaging, U2OS, beta-arrestin-GFP, LPI agonist (AID 2013); type: functional;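 also: antagonist potency measured as reduced agonist-driven arrestin aggregation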
# T3 sequence (Q9Y2T6 whole entry): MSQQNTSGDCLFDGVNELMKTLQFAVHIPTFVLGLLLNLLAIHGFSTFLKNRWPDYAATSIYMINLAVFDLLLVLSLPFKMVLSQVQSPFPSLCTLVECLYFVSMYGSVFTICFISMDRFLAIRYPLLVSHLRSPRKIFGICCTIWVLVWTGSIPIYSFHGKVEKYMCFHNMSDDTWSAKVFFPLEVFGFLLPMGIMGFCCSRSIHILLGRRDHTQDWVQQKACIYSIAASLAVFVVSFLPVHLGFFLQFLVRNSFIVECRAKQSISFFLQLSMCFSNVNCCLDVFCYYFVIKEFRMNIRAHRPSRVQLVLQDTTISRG
# [5] = growth suppression of beta-catenin-knockout colon cells, dose response, cell-based, HCT116, human colon tumor (AID 1045); type: functional;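 also: HCT116 colon tumor cells with beta catenin knocked out; cells exposed to compound for 60 hours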
# [6] = cytotoxicity toward NIH3T3 fibroblasts, dose response, counter-screen, cell-based, ATP luminescence, mouse fibroblasts (AID 2010); type: functional;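 also: cells exposed to compound for about 90 hours before reading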
# Cannabinoid receptor 2 [7] = target: T4, Cannabinoid receptor 2 (Homo sapiens, UniProt P34972); assay: SAR analysis of agonists of the Cannabinoid Receptor 2 using an Image-Based Assay. [Related pubchem assays (depositor defined):AID2013, AID2026]; type: functional
# T4 sequence (P34972 whole entry): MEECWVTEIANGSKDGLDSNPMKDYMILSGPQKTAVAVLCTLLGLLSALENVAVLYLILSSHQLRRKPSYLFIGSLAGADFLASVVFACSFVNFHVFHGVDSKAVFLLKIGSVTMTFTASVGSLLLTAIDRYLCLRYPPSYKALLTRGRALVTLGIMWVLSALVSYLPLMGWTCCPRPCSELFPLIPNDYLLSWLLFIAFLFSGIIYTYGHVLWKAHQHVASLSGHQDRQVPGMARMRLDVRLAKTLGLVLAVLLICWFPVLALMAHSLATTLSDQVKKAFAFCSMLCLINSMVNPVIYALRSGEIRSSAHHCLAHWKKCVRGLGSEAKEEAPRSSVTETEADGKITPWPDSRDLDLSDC
# Cannabinoid receptor 2 [8] = target: T4, Cannabinoid receptor 2; assay: SAR analysis of antagonists of the Cannabinoid Receptor 2 using an Image-Based Assay. [Related pubchem assays (depositor defined):AID2013, AID2026]; type: functional
# [9] = target: T2, G-protein coupled receptor 35; assay: SAR analysis of Antagonists of the GPR35 Receptor using an Image-Based Assay - Set 3. [Related pubchem assays (depositor defined):AID2013, AID2026]; type: functional
# [10] = target: T3, G-protein coupled receptor 55; assay: GPR55 antagonist potency of analogs, SAR follow-up, imaging, U2OS, beta-arrestin-GFP, LPI agonist, set 2 (AID 2820); type: functional
# [11] = inhibitors of intracellular T. cruzi replication, confirmation, NIH3T3 host cells, beta-gal luminescence (AID 2044); type: functional, cell-based;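 also: intracellular parasites grown in NIH/3T3 mouse fibroblasts as host cells; luminescent beta-galactosidase reporter signal from transgenic T. cruzi replicating inside host cells; inhibitors lower the luminescence signal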
# Cannabinoid receptor 1 [12] = target: T1, Cannabinoid receptor 1; assay: SAR analysis of antagonists of the Cannabinoid Receptor 1 using an Image-Based Assay - Set 2. [Related pubchem assays (depositor defined):AID2013, AID2026]; type: functional
# Beta-galactosidase = Beta-galactosidase (Escherichia coli, UniProt Q8VNN2); type: functional
# [13] = target: T5, Kappa-type opioid receptor (Homo sapiens, UniProt P41145); type: functional
# T5 sequence (P41145 whole entry): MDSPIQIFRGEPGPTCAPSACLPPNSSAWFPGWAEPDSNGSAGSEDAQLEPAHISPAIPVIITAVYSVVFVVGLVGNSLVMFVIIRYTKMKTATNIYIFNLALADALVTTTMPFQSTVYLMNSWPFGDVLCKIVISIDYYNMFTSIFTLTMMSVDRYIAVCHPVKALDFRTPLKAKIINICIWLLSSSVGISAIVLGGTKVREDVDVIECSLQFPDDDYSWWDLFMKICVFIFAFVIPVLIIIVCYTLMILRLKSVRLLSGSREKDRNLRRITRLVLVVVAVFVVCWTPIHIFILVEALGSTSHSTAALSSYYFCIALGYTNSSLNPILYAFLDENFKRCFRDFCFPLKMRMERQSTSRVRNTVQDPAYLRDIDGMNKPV
# [14] = target: T6, Delta-type opioid receptor (Homo sapiens, UniProt P41143); assay: HTS Image-Based Screen for Antagonists of the DOR Receptor. [Related pubchem assays (depositor defined):AID1777, AID1785, AID1786, AID2133]; type: functional
# T6 sequence (P41143 whole entry): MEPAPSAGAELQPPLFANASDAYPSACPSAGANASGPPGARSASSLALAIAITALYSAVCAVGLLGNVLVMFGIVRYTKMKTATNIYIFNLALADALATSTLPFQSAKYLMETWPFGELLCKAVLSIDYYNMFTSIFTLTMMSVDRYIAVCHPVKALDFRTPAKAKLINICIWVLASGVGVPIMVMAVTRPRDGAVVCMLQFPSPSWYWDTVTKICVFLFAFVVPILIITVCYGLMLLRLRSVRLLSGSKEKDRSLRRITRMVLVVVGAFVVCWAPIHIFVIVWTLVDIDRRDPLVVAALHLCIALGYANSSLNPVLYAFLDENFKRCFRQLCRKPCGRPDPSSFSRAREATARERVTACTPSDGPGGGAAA
# [15] = target: T6, Delta-type opioid receptor; assay: HTS Image-Based Screen for Agonists of the DOR Receptor. [Related pubchem assays (depositor defined):AID1777, AID1786, AID2133]; type: functional
# Mu-type opioid receptor [16] = target: T7, Mu-type opioid receptor (Homo sapiens, UniProt P35372); assay: HTS Image-Based Screen for Agonists of the MOR Receptor. [Related pubchem assays (depositor defined):AID1777, AID1785, AID1786, AID2133]; type: functional
# T7 sequence (P35372 whole entry): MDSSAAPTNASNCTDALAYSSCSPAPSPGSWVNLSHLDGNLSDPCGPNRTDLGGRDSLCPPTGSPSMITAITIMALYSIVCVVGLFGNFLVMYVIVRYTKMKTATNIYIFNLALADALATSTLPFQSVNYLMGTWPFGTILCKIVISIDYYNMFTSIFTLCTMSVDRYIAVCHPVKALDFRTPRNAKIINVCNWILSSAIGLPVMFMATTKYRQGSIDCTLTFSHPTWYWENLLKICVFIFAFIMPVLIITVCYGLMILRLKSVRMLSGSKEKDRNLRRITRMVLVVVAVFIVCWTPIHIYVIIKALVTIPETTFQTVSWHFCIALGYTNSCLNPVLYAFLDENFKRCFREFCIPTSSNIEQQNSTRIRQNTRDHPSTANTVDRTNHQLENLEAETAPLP
# [17] = target: T5, Kappa-type opioid receptor; type: functional; remark: listed apart in the source
# [18] = target: Voltage-dependent T-type calcium channel subunit alpha-1H (Homo sapiens, UniProt O95180); assay: Cav3.2 T-type channel blockers, cell-based, SynthLib3 library, HEK293 Cav3.2, fluorescence (AID 493041); type: functional
# Sequence of Voltage-dependent T-type calcium channel subunit alpha-1H (O95180 whole entry): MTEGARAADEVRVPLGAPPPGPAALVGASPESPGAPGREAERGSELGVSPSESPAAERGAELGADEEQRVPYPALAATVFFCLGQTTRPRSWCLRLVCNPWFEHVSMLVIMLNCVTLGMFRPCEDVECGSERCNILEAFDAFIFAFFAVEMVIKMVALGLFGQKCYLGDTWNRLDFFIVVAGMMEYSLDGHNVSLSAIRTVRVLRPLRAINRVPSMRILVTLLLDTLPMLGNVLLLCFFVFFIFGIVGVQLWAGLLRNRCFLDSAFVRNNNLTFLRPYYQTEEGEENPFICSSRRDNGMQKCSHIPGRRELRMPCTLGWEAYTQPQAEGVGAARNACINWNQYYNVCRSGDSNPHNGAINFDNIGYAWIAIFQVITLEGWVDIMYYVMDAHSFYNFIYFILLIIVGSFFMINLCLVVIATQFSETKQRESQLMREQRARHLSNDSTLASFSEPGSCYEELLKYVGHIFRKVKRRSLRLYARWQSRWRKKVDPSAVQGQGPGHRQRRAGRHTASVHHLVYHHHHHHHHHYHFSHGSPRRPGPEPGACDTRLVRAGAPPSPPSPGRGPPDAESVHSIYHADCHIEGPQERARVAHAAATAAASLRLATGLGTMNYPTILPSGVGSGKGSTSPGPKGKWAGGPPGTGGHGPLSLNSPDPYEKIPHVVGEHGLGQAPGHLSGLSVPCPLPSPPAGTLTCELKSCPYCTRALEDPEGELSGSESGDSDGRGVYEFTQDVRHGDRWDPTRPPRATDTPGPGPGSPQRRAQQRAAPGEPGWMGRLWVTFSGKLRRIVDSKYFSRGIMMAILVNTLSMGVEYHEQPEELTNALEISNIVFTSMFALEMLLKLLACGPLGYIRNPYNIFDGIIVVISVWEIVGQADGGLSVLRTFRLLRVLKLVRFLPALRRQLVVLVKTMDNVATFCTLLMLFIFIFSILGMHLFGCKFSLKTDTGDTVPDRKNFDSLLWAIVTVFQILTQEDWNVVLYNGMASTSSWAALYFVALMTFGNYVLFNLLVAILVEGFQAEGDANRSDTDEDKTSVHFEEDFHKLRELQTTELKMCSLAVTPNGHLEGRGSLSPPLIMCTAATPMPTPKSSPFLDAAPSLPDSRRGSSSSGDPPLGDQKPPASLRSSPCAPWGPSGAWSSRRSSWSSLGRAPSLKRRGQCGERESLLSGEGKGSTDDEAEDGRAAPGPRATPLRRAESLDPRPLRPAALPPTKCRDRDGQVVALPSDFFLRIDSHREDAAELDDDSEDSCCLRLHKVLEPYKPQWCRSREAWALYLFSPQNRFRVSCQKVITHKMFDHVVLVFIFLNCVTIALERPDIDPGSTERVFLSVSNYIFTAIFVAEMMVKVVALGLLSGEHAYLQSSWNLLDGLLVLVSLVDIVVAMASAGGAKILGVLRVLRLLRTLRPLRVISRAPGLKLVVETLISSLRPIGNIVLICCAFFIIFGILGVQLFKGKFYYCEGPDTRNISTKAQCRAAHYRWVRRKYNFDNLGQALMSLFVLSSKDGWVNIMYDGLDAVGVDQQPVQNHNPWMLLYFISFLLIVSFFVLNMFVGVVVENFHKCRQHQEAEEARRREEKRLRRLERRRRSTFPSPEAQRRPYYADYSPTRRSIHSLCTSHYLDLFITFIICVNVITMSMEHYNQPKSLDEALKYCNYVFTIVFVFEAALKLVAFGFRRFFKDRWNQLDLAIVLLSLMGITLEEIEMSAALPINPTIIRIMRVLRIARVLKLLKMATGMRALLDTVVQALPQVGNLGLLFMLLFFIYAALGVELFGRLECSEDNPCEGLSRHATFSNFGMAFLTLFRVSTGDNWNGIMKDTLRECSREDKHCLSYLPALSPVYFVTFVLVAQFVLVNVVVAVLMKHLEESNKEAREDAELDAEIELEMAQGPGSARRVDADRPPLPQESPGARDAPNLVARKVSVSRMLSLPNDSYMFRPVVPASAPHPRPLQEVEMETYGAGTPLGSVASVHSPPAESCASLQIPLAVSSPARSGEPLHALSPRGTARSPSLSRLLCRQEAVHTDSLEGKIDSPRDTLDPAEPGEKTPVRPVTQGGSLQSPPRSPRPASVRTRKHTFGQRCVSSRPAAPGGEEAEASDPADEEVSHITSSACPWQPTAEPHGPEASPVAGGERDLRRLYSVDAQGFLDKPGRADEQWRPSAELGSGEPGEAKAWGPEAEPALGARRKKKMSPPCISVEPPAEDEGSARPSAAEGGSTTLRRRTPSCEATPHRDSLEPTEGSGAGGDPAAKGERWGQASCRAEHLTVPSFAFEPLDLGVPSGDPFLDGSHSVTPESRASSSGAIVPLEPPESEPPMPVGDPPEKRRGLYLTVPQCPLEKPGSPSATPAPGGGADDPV
# [19] = target: T6, Delta-type opioid receptor; assay: SAR Analysis of Agonists of the DOR Receptor using an Image-Based Assay - Set 3. [Related pubchem assays (depositor defined):AID1777, AID1786]; type: functional
# [20] = target: T5, Kappa-type opioid receptor; assay: KOR agonist analogs, arrestin-GFP redistribution, SAR follow-up, imaging, image-based, set 3 (AID 488833); type: functional
# Mu-type opioid receptor [21] = target: T7, Mu-type opioid receptor; assay: SAR Analysis of Agonists of the MOR Receptor using an Image-Based Assay - Set 3. [Related pubchem assays (depositor defined):AID1777, AID1785, AID1786, AID1966, AID2133, AID2136, AID2284, AID2285, AID2352]; type: functional
# [22] = target: T5, Kappa-type opioid receptor; assay: SAR analysis of small molecule agonists of the kappa opioid receptor via a luminescent beta-arrestin assay - Set 3. [Related pubchem assays (depositor defined):AID1777, AID1785, AID1786, AID1966, AID2133, AID2136, AID2284, AID2500]; type: functional
# Integrin alpha-4 = Integrin alpha-4 (Homo sapiens, UniProt P13612); assay: VLA-4 integrin allosteric ligands, SAR follow-up, cell-based, LIBS antibody binding, flow cytometry (AID 488791); type: functional
# [23] = mammalian cell cytotoxicity, dose response, cytotoxicity control, plate reader, cherry-pick samples (AID 504397); type: functional, cell-based
# Protein RecA = target: T8, Protein RecA (Mycobacterium tuberculosis, UniProt P9WHJ3); assay: Fluorescence Cell-Free Homogeneous Dose Retest to Identify Inhibitors of RecA-Intein Splicing Activity. [Related pubchem assays (depositor defined):AID2097, AID2223, AID489010, AID492950]; type: functional
# T8 sequence (P9WHJ3 whole entry): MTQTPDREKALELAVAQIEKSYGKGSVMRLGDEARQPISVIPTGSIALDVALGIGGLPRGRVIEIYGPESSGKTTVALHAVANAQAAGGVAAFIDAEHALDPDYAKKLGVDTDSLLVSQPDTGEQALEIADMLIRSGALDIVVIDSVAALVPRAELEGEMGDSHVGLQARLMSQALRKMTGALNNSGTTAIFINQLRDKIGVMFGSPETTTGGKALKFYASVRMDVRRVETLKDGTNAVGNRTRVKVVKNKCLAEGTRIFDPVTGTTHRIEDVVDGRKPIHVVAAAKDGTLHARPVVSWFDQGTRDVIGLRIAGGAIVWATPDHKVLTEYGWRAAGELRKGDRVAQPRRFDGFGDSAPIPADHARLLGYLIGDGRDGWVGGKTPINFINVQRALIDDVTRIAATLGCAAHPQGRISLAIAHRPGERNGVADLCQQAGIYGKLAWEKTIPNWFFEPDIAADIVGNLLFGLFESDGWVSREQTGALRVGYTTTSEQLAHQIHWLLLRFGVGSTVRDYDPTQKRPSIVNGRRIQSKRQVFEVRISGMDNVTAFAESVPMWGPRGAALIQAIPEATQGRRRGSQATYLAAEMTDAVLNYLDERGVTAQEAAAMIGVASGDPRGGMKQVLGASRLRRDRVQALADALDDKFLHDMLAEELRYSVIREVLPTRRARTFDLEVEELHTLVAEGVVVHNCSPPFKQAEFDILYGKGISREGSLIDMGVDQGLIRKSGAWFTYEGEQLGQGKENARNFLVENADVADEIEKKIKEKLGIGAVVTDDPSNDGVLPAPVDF
# CAAX prenyl protease 2 [24] = target: T9, CAAX prenyl protease 2 (Saccharomyces cerevisiae S288c, UniProt Q03530); type: biochemical
# T9 sequence (Q03530 whole entry): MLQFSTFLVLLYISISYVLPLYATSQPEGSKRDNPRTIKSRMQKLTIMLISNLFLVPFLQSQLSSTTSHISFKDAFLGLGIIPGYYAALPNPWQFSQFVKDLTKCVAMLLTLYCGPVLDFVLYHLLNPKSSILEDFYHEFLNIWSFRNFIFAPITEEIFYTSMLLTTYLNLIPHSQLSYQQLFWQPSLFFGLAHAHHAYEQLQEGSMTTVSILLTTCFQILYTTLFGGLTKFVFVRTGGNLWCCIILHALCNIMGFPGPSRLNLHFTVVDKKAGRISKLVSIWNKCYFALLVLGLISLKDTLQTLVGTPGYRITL
# [25] = target: T10, Replicative DNA helicase DnaB (Mycobacterium tuberculosis, UniProt P9WMR3); assay: DnaB intein splicing inhibitors, dose response, biochemical, cell-free fluorescence (AID 449749); type: functional
# T10 sequence (P9WMR3 whole entry): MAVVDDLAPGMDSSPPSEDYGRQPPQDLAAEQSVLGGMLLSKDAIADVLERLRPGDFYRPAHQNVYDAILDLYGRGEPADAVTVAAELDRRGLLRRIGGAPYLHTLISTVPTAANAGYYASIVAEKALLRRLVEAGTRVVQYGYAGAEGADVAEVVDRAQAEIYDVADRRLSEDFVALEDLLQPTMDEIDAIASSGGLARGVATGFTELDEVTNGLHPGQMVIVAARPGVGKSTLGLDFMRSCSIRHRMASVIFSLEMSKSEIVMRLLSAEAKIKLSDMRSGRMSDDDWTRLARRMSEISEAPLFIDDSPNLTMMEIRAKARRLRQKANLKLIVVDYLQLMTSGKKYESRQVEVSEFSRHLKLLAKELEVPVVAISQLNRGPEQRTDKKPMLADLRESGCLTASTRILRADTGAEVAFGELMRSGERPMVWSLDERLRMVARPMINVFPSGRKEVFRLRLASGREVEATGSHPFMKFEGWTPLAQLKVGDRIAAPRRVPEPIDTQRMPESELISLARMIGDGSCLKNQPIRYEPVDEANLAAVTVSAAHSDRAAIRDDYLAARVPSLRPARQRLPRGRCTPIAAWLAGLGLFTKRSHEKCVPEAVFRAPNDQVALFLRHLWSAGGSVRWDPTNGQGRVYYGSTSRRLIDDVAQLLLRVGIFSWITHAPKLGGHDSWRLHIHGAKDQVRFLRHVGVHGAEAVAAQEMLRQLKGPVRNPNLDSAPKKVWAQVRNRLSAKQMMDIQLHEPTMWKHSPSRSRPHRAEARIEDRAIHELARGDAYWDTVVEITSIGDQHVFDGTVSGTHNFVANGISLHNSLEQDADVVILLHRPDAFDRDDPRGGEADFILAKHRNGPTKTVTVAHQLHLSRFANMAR
# [26] = target: T2, G-protein coupled receptor 35; assay: GPR35 antagonists blocking zaprinast-driven arrestin recruitment, primary screen, imaging, U2OS, beta-arrestin-GFP, zaprinast agonist (AID 2058); type: functional;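 also: antagonist potency meaning inhibition of agonist-induced arrestin redistribution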
# CAAX prenyl protease 2 [27] = target: T11, CAAX prenyl protease 2 (Homo sapiens, UniProt Q9Y256); assay: human Rce1 protease inhibitors, dose response, biochemical, yeast membranes, quenched-peptide fluorescence, cherry-pick (AID 588849)
# T11 sequence (Q9Y256 whole entry): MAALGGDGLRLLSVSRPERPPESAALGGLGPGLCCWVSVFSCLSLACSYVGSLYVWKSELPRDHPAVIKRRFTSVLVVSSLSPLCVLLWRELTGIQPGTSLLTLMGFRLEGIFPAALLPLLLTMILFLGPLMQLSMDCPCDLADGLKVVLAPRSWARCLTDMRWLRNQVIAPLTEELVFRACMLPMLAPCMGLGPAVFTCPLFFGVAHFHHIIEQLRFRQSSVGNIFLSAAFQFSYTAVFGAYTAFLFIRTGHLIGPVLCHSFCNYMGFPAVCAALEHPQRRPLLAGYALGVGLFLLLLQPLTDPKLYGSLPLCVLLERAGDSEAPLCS
# Tumor necrosis factor = Tumor necrosis factor (Homo sapiens, UniProt P01375); assay: TNFa-triggered NF-kB activation inhibitors, SAR follow-up, cell-based, revised (AID 2337); type: functional
# HEK293 = assay: cells; conditions: Homo sapiens;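 also: cells exposed to compound for 14 hours overnight before viability readout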
# [28] = target: Nucleotide-binding oligomerization domain-containing protein 1 (Homo sapiens, UniProt Q9Y239); assay: NOD1 signaling inhibitors, SAR follow-up, revised (AID 2333); type: functional
structure (smiles),measurement,setting,value
CCC(C)NS(=O)(=O)c1ccc(NC(=O)C(Sc2ccccc2)c2ccccc2)cc1 (stereo unspecified),EC50,[1],13.6 µM (active)
same,EC50,Cannabinoid receptor 1 [2],> 32 µM (inactive)
same,EC50,[3],> 32 µM (inactive)
same,IC50,[4],0.592 µM (active)
same,EC50,[5],14.5 µM (active)
same,EC50,[6],> 60 µM (not active)
same,EC50,Cannabinoid receptor 2 [7],> 32 µM (inactive)
same,IC50,Cannabinoid receptor 2 [8],> 32 µM (inactive)
same,IC50,[9],> 32 µM (inactive)
same,IC50,[10],1.94 µM (active)
same,EC50,[11],2.34 µM (active)
same,IC50,Cannabinoid receptor 1 [12],0.975 µM (active)
COC(=O)c1ccc(C)c(-n2c(=O)n(Cc3ccccc3)c(=O)c3[nH]cnc32)c1,EC50,Beta-galactosidase,11.5 µM (active)
same,IC50,[13],6.39 µM (active)
same,IC50,[14],> 32 µM (inactive)
same,EC50,[15],> 32 µM (inactive)
same,EC50,Mu-type opioid receptor [16],> 32 µM (inactive)
same,IC50,[17],> 32 µM
CCC(CC)CN1CCC[C@H](NC(=O)COc2ccc(F)c(Cl)c2)C1,EC50,[18],10 µM (active)
COC(=O)c1ccc(CSc2nnc(-c3ccccn3)n2Cc2ccco2)cc1,EC50,[19],> 64 µM (inactive)
same,EC50,[20],18.7 µM (inactive)
same,EC50,Mu-type opioid receptor [21],> 32 µM (inactive)
same,EC50,[22],6.62 µM (active)
CC(NC(=O)/C(C#N)=C/c1ccc(Cl)c([N+](=O)[O-])c1)c1ccccc1 (stereo unspecified),EC50,Integrin alpha-4,2.42 µM (active)
same,EC50,[1],17.8 µM (active)
same,AC50,[23],18.2 µM (active)
same,EC50,Protein RecA,5.2 µM (active)
same,AC50,CAAX prenyl protease 2 [24],2.44 µM (active)
same,IC50,[4],8.95 µM (active)
same,EC50,[5],13.5 µM (active)
same,AC50,[25],4.02 µM (active)
same,IC50,[26],2.53 µM (active)
same,AC50,CAAX prenyl protease 2 [27],8.59 µM (active)
CC(=O)N1c2ccc(S(=O)(=O)N3CCN(c4ccc(C)cc4)CC3)cc2CC1C (stereo unspecified),IC50,Tumor necrosis factor,4.32 µM (active)
same,IC50,HEK293,> 20 µM (inactive)
same,IC50,[28],5.76 µM (active)

# Source: ChEMBL document CHEMBL1201862, “PubChem BioAssay data set” (2004)
